Data from patent US20100179158A1, “INHIBITORS OF CYCLIC AMP PHOSPHODIESTERASES” (priority 2007, published 2010).

What follows are compounds tested against T1, PDE7A (Homo sapiens, UniProt Q13946) (assay: Fission yeast 5FOA growth assay, strain expressing PDE7A). Conditions: 5FOA growth.
T1 construct: targets used in the assays are full-length proteins (as opposed to simply the catalytic domain); expressed in transfected cells; host or cells: Schizosaccharomyces pombe, gene integrated at the cgs2 locus
T1 sequence (Q13946 whole entry, the tested form may be a part): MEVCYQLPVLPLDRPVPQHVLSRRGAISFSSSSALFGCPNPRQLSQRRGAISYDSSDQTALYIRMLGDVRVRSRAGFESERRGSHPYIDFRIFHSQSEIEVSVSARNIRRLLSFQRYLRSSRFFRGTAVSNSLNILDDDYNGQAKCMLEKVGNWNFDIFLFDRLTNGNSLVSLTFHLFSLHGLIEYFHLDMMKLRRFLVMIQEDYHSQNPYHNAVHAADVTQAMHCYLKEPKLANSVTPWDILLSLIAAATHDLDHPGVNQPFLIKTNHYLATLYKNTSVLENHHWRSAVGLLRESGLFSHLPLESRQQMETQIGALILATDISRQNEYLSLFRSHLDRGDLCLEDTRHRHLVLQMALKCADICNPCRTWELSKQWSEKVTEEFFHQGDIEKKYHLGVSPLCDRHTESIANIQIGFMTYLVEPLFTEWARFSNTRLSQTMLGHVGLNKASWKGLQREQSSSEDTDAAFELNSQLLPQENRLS
Format: cell-based
Protocol: (§1) Cells were pregrown in EMM medium [MP Biomedicals (Solon, OH), 3% glucose, filter-sterilized to avoid carmelization, which would introduce variability into the optical density of the medium] containing from 0 mM to 2.5 mM cAMP (or either 0.5 mM or 1.0 mM cGMP). This was to repress expression of the fbp1-ura4 reporter prior to exposure of cells to 5FOA medium. Cells were grown at 30° C. to exponential phase (approximately 10^7 cells/ml). Cells were collected by centrifugation and resuspended in 5FOA medium, and 25 μl were transferred to 384-well microtiter dishes (untreated, with flat clear bottoms) that had been pre-filled with 25 μl 5FOA medium and pre-pinned with 100 nl of compounds (stock solutions were generally 10 mM). Starting cell concentrations ranged from 0.5×10^5 to 4×10^5 cells/ml depending on the screening strain. […] Other positive control dishes contained 5 mM cAMP in the 5FOA medium for PDEs that lack appropriate control compounds. Cultures were grown for 48 hours at 30° C., sealed in an airtight container with moist paper towels to prevent evaporation. Optical densities (OD600) of cultures were measured using a microplate reader. Bioinformatic analysis of the results to determine composite Z scores was performed as previously described (1, 3).
With `CC(C)(C)c1c(C#N)sc2sc(C#N)c(N)c12` [Compound 30-4] the “ED50, PDE 7A” value was “ND ND weak activity ND ND”.

What follows are compounds tested against T2, PDE4A1 (Mus musculus, UniProt O89084) (assay: IC50 on PDE4A1). Conditions: read-out: IC50, PDE 4A1.
T2 construct: targets used in the assays are full-length proteins (as opposed to simply the catalytic domain); expressed in transfected cells; host or cells: Schizosaccharomyces pombe, gene integrated at the cgs2 locus
T2 sequence (O89084 1-610 isoform O89084-2): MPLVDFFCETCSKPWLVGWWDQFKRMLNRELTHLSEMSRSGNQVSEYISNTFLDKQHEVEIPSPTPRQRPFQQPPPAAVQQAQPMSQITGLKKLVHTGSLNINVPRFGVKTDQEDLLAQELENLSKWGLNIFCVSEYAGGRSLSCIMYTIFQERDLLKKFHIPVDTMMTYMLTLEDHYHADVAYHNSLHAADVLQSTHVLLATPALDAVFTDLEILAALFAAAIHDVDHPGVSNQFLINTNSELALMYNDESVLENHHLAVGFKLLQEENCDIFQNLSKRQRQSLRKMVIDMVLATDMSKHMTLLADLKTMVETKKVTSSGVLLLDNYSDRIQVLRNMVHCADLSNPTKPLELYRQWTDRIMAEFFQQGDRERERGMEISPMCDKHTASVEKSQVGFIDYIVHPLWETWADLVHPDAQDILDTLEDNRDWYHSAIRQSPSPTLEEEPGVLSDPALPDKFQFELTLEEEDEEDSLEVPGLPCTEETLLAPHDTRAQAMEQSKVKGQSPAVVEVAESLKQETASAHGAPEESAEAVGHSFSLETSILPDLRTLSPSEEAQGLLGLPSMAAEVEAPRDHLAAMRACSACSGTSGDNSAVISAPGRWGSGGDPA
Format: biochemical, murine
In the case of `CC(C)n1c2ccc(Cl)cc2c2nc3ccccc3nc21` [Compound 35], the IC50 is reported as 100 nM.

What follows are compounds tested against T3, PDE4D3 (Homo sapiens, UniProt Q08499) (assay: IC50 on PDE4D3). Conditions: read-out: IC50, PDE 4D3.
T3 construct: targets used in the assays are full-length proteins (as opposed to simply the catalytic domain); expressed in transfected cells; host or cells: Schizosaccharomyces pombe, gene integrated at the cgs2 locus
T3 sequence (Q08499 1-673 isoform Q08499-2): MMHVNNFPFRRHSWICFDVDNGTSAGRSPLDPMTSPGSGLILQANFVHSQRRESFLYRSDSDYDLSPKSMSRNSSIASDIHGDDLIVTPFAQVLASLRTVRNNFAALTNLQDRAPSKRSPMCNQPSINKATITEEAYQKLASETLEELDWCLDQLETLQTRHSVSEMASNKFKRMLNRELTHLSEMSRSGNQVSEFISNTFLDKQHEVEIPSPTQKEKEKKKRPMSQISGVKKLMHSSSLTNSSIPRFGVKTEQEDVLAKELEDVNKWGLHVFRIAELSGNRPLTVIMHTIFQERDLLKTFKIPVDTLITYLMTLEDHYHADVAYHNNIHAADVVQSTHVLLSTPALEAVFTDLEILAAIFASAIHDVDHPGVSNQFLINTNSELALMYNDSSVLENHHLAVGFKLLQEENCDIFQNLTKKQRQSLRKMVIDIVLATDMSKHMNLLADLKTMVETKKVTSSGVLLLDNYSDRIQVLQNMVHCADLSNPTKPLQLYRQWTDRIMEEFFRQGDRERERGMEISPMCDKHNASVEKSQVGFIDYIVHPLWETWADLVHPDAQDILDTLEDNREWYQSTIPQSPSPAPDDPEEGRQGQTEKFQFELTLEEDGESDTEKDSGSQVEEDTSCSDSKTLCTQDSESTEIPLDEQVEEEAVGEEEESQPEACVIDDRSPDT
Format: biochemical
For `CC(C)n1c2ccc(Cl)cc2c2nc3ccccc3nc21` [Compound 35], the IC50 was 35 nM.

Each compound was assayed against T4, PDE8A (Mus musculus, UniProt O88502) (assay: fbp1-lacZ β-galactosidase assay, PDE8A strain DDP13). Conditions: possibly a permeability problem in the yeast.
T4 construct: targets used in the assays are full-length proteins (as opposed to simply the catalytic domain); expressed in transfected cells; host or cells: Schizosaccharomyces pombe strains DDP13 and CHP1141
T4 sequence (O88502 1-823): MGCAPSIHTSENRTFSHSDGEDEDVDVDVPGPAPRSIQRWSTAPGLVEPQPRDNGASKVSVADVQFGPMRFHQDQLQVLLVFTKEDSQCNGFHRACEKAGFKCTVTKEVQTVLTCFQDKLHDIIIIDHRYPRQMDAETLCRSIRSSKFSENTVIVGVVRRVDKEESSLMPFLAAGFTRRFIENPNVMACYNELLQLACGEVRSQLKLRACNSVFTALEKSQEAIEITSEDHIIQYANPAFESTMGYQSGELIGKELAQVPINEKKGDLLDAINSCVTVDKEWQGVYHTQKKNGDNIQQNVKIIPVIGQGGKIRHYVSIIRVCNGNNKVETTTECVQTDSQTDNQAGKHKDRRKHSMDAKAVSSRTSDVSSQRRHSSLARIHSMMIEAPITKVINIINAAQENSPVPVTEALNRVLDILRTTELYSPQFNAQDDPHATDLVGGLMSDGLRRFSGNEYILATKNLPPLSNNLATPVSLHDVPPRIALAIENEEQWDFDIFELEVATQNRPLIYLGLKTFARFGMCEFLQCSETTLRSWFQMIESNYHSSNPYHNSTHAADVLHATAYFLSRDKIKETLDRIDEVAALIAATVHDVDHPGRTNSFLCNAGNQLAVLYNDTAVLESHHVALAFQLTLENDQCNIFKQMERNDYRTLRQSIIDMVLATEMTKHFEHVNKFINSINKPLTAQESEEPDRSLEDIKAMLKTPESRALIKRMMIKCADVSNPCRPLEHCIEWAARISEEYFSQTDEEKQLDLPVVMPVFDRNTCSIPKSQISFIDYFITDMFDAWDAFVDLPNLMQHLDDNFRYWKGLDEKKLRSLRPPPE
Format: cell-based, murine
Protocol: β-galactosidase assays and characterization of 5FOA-sensitivity were carried out as previously described^10. cAMP assays were performed on exponential phase cells grown in EMM complete medium (3% glucose), using the Assay Designs cAMP EIA kit, according to manufacturer's instructions (Assay Designs, Ann arbor, MI).
The effect of known PDE inhibitors on the expression of the fbp1-lacZ fusion in murine PDE-expressing strains was tested. […] For Table 4 β-galactosidase activity was determined from 3 to 4 independent exponential phase cultures. The average±SD represents specific activity per milligram of soluble protein.
`OCCN(CCO)c1nc(N2CCCCC2)c2nc(N(CCO)CCO)nc(N3CCCCC3)c2n1` [dipyridamole] was tested, and the “Inhibition of PDE8A in yeast” value was “not able to be inhibited”.

These compounds were tested on PDE4A, PDE4B, PDE4D, PDE7A (assay: Overall PDE inhibitor profile from the yeast assays (table footnotes, summary)). Conditions: not given.
Format: cell-based
Source text: PDE inhibitors were identified using methods described herein, such as high throughput drug screens on genetically engineered fission yeast strains that express drug targets (e.g., PDE4A and/or PDE4B, which are anti-inflammatory targets). PDE inhibitors were identified based on their ability to stimulate growth and compounds were identified because they were effective in live cells. In addition, targets used in the assays are full-length proteins (as opposed to simply the catalytic domain) and the assay used included a built-in toxicity test, permeability test and stability test. The inhibitors identified display a very high degree of target specificity. Compounds identified include inhibitors that act on two of three PDE4 family enzymes and inhibitors that act on combinations of PDE4 and PDE7 strains. […] Limited inhibition of PDE4D by a PDE inhibitor is desirable, in view of the fact that inhibition of PDE4D causes emesis and cardiac arrhythmias. Subtype specificity was confirmed by means of cAMP assays.
as §1
In the case of `CCC(=O)C1=C(C)N(c2ccc(F)cc2)C(=O)/C1=C\c1cccs1` [Compound 27-6], the “PDE inhibitor profile in words (table footnote / summary)” value is reported as “(4) Strong PDE4A, 4B inhibitor, Moderate PDE7A inhibitor”.
In the case of `COC(=O)C1=C(C)N(c2cccc(C)c2)C(=O)/C1=C\c1cccs1` [Compound 27-5], the “PDE inhibitor profile in words (table footnote / summary)” value is reported as “(2) Strong PDE4A, 4B inhibitor, Moderate PDE4D inhibitor”.
With `O=C(O)Cn1c2ccc(Cl)cc2c2nc3ccccc3nc21` [1429, L06] the “PDE inhibitor profile in words (table footnote / summary)” value was “(4) Moderate PDE4A, 4B inhibitor”.
`N#Cc1sc2sc(C#N)c(-c3cccs3)c2c1N` [Compound 30-2] was tested, and the “PDE inhibitor profile in words (table footnote / summary)” value was “(1) Weak PDE7A inhibitor”.
For `C=CCn1c2ccccc2c2nc3ccccc3nc21` [1427, P20], the “PDE inhibitor profile in words (table footnote / summary)” value was “(3) Strong 4B, Moderate 4A inhibitor”.
In the case of `COC(=O)C1=C(C)N(C)C(=O)/C1=C\c1cccs1` [Compound 27-2], the “PDE inhibitor profile in words (table footnote / summary)” value is reported as “(2) Strong PDE4A, 4B inhibitor; Moderate PDE4D inhibitor”.
For `COC(=O)C1=C(C)N(CC(C)C)C(=O)/C1=C\c1cccs1` [Compound 27-3], the “PDE inhibitor profile in words (table footnote / summary)” value was “(1) Strong PDE4A, 4B inhibitor”.
`C=Cn1c2ccccc2c2nc3ccccc3nc21` [2033, H06] was tested, and the “PDE inhibitor profile in words (table footnote / summary)” value was “(1) Moderate to strong PDE4A, 4B inhibitor”.
In the case of `CC(C)Cn1c2ccc(Br)cc2c2nc3ccccc3nc21` [2015, L04], the “PDE inhibitor profile in words (table footnote / summary)” value is reported as “(5) Moderate 4B inhibitor”.
With `CC(C)(C)c1c(C#N)sc2sc(C#N)c(N)c12` [Compound 30-4] the “PDE inhibitor profile in words (table footnote / summary)” value was “(3) Little/no activity under conditions used”.
In the case of `N#Cc1sc2sc(C#N)c(-c3ccco3)c2c1N` [Compound 30], the “PDE inhibitor profile in words (table footnote / summary)” value is reported as “(2) Strong PDE7A inhibitor”.
With `COC(=O)C1=C(C)N(Cc2ccccc2)C(=O)/C1=C\c1cccs1` [Compound 27-4] the “PDE inhibitor profile in words (table footnote / summary)” value was “(1) Strong PDE4A, 4B inhibitor”.
With `CC(C)Cn1c2ccccc2c2nc3ccccc3nc21` [1422, M02] the “PDE inhibitor profile in words (table footnote / summary)” value was “(1) Strong PDE4A inhibitor”.
With `COC(=O)C1=C(C)N(c2ccccc2Cl)C(=O)/C1=C\c1ccco1` [Compound 27-8] the “PDE inhibitor profile in words (table footnote / summary)” value was “(2) Strong PDE4A, 4B inhibitor”.
With `Cc1cc(C)nc(SCC[S+]([O-])c2ccc(C(C)(C)C)cc2)n1` (centres unmarked) [Compound 26-2] the “PDE inhibitor profile in words (table footnote / summary)” value was “(2) Moderate 4A inhibitor”.
In the case of `COc1ccc2c(c1)[C@]1(C)CCC[C@@](C)(CO)C1CC2` (some centres unmarked) [Compound 2067M03], the “PDE inhibitor profile in words (table footnote / summary)” value is reported as “(1) Strong PDE7A inhibitor, Weak to moderate PDE4A, 4B inhibitor”.
`C=CCn1c2ccc(Br)cc2c2nc3ccccc3nc21` [2019, G03] was tested, and the “PDE inhibitor profile in words (table footnote / summary)” value was “(2)-(4) Moderate PDE4A, 4B inhibitors”.
In the case of `CCOC(=O)c1sc2sc(C(=O)OCC)c(-c3ccco3)c2c1N` [Compound 30-1], the “PDE inhibitor profile in words (table footnote / summary)” value is reported as “(4) Weak PDE4A inhibitor”.
In the case of `CCCCn1c2ccccc2c2nc3ccccc3nc21` [2013, I20], the “PDE inhibitor profile in words (table footnote / summary)” value is reported as “(2) Strong PDE4A inhibitor”.
For `C=CCn1c2ccc(Br)cc2c2nc3ccccc3nc21` [2017, C18], the “PDE inhibitor profile in words (table footnote / summary)” value was “(2)-(4) Moderate PDE4A, 4B inhibitors”.
For `CCC(=O)C1=C(C)N(c2cccc(C(F)(F)F)c2)C(=O)/C1=C\c1cccs1` [Compound 27-7], the “PDE inhibitor profile in words (table footnote / summary)” value was “(3) Strong PDE4A5 inhibitor”.
For `CCCCn1c2ccccc2c2nc3ccccc3nc21` [2015, P06], the “PDE inhibitor profile in words (table footnote / summary)” value was “(2)-(4) Moderate PDE4A, 4B inhibitors”.
In the case of `COC(=O)C1=C(C)N(C)C(=O)/C1=C\c1cccs1` [Compound 27-1], the “PDE inhibitor profile in words (table footnote / summary)” value is reported as “(1) Strong PDEA5 inhibitor”.
`N#Cc1sc2sc(C#N)c(-c3ccc(Cl)cc3)c2c1N` [Compound 30-3] was tested, and the “PDE inhibitor profile in words (table footnote / summary)” value was “(3) Little/no activity under conditions used”.
`Cc1ccc2c(c1)CC[C@@H]1CC(=O)CC[C@@]21C` [Compound 2158J12] was tested, and the “PDE inhibitor profile in words (table footnote / summary)” value was “(2) Strong PDE7A and PDE4s (including D) inhibitor”.

These compounds were tested on PDE2A, PDE4A, PDE4B, Cgs2 (assay: High throughput 5FOA growth screens of bioactive libraries). Conditions: average 20 μM; composite Z score cut-off ≧8.53.
Format: cell-based, murine; Schizosaccharomyces pombe
Protocol: High throughput drug screens were carried out at the Broad Institute's Chemical Biology Program screening facility (Broad Institute, Cambridge, Mass.). Depending upon the strain, cultures were pregrown to exponential phase in EMM complete medium containing from 0.5 to 2.5 mM cAMP to repress fbp1-ura4 transcription. […] Starting cell concentrations ranged from 0.5×10^5 to 4×10^5 cells/ml depending on the screening strain. […] Other positive control dishes contained 5 mM cAMP in the 5FOA medium. Cultures were grown for 48 hours at 30° C., sealed in an airtight container with moist paper towels to prevent evaporation. Optical densities (OD600) of cultures were measured using a microplate reader. Bioinformatic analysis of the results to determine composite Z scores was performed as previously described^30, 31.
`Cc1cc2cc3c(C)cc(=O)oc3c(C)c2o1` [trioxsalen] was tested, and the “Result in high throughput screens for 5FOA-resistant growth” value (“Result in high throughput screens” below) was “identified”.
With `COc1c2ccoc2cc2oc(C)cc(=O)c12` [visnagin] the “Result in high throughput screens” value was “identified”.
With `COc1c2occc2c(OC)c2c(=O)cc(C)oc12` [khellin] the “Result in high throughput screens” value was “identified”.
